The values that follow come from PubChem BioAssay AID248 (DTP/NCI, 2004).

The assay deals with L1210 leukemia ip in BDF1 mice, survival T/C. In words: NCI In Vivo Anticancer Drug Screen. Data for tumor model L1210 Leukemia (intraperitoneal) in B6D2F1 (BDF1) mice. The following applies: endpoint: mean survival time, higher = longer survival. The procedure, abridged:
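Each compound was tested against a transplantable tumor grown in mice. The endpoint was survival, with treated animals benchmarked against vehicle controls as a simple ratio.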

Where [1] appears, read: dose: 100.0 mg/kg/injection, schedule: Q04DX003 (ip), vehicle: other.
The mark [2] stands for this setting: dose: 200.0 mg/kg/injection, schedule: Q04DX003 (ip), vehicle: other.
Setting [3] is: dose: 400.0 mg/kg/injection, schedule: Q04DX003 (ip), vehicle: other.
Where [4] appears, read: dose: 50.0 mg/kg/injection, schedule: Q01DX001 (ip), vehicle: saline.
The mark [5] stands for this setting: dose: 100.0 mg/kg/injection, schedule: Q01DX001 (ip), vehicle: saline.
Setting [6] is: dose: 200.0 mg/kg/injection, schedule: Q01DX001 (ip), vehicle: saline.
[7] abbreviates: dose: 400.0 mg/kg/injection, schedule: Q01DX001 (ip), vehicle: saline.
Setting [8] is: dose: 100.0 mg/kg/injection, schedule: Q01DX009 (ip), vehicle: Klucel (hydroxypropylcellulose) (HPC).
Setting [9] is: dose: 200.0 mg/kg/injection, schedule: Q01DX009 (ip), vehicle: Klucel (hydroxypropylcellulose) (HPC).

Each structure is given as a SMILES string. Inconclusive results and toxic doses are left out.

On to `NC(N)=NCCCC(NC(=O)c1ccccc1)C(=O)O` (configuration not stated), for which the T/C runs as follows: (dose: 100.0 mg/kg/injection, schedule: Q01DX001 (ip), vehicle: other) 104 % of control; (dose: 100.0 mg/kg/injection, schedule: Q01DX009 (ip), vehicle: other) 101 % of control; under setting [1], 93 % of control; (dose: 200.0 mg/kg/injection, schedule: Q01DX001 (ip), vehicle: other) 100 % of control; (dose: 200.0 mg/kg/injection, schedule: Q01DX009 (ip), vehicle: other) 107 % of control; under setting [2], 90 % of control. Moreover, the T/C (dose: 400.0 mg/kg/injection, schedule: Q01DX001 (ip), vehicle: other) is 100 % of control; the T/C (dose: 400.0 mg/kg/injection, schedule: Q01DX009 (ip), vehicle: other) was 100 % of control; the T/C under setting [3] is 96 % of control.
On to `CC(C)(C)C1CCS(=O)(=O)CC1.[Cl][Hg][Cl]`, for which the T/C is, setting by setting: (dose: 0.25 mg/kg/injection, schedule: Q01DX009 (ip), vehicle: saline) 97 % of control; (dose: 0.5 mg/kg/injection, schedule: Q01DX009 (ip), vehicle: saline) 98 % of control; (dose: 1.0 mg/kg/injection, schedule: Q01DX009 (ip), vehicle: saline) 94 % of control.
As to `CC(=O)N(c1ccccc1)C(C(=O)c1ccccc1)c1ccccc1` (configuration not stated), the T/C under setting [4] is 98 % of control, the T/C under setting [5] was 102 % of control, the T/C under setting [6] is 108 % of control and the T/C under setting [7] is 98 % of control.
Take `CCCN1C(=O)CC(=O)NC1=O`: the T/C is 102 % of control under setting [5], 100 % of control under setting [6] and 100 % of control under setting [7].
As to `CCN(CC)CCCC(C)NC(=O)c1ccc(N(C)C)nc1` (configuration not stated), the T/C (dose: 25.0 mg/kg/injection, schedule: Q01DX009 (ip), vehicle: water) is 97 % of control; the T/C (dose: 50.0 mg/kg/injection, schedule: Q01DX009 (ip), vehicle: water) is 104 % of control; the T/C (dose: 100.0 mg/kg/injection, schedule: Q01DX009 (ip), vehicle: water) was 101 % of control; the T/C (dose: 200.0 mg/kg/injection, schedule: Q01DX009 (ip), vehicle: water) was 104 % of control; the T/C (dose: 400.0 mg/kg/injection, schedule: Q01DX009 (ip), vehicle: water) is 101 % of control.
For `O=[N+]([O-])c1ccc(/C=C/c2ccccc2)c(Cl)c1`, the T/C is 95 % of control (dose: 100.0 mg/kg/injection, schedule: Q01DX001 (ip), vehicle: saline with Tween-80); 102 % of control (dose: 200.0 mg/kg/injection, schedule: Q01DX001 (ip), vehicle: saline with Tween-80); 95 % of control (dose: 400.0 mg/kg/injection, schedule: Q01DX001 (ip), vehicle: saline with Tween-80).
Turning to `CSc1ccc(OC(=O)NC2CCCCC2)cc1C`, the T/C was 92 % of control under setting [8]; 93 % of control (dose: 100.0 mg/kg/injection, schedule: Q04DX003 (ip), vehicle: Klucel (hydroxypropylcellulose) (HPC)); 97 % of control under setting [9]; 111 % of control (dose: 200.0 mg/kg/injection, schedule: Q04DX003 (ip), vehicle: Klucel (hydroxypropylcellulose) (HPC)); 93 % of control (dose: 400.0 mg/kg/injection, schedule: Q01DX009 (ip), vehicle: Klucel (hydroxypropylcellulose) (HPC)); 95 % of control (dose: 400.0 mg/kg/injection, schedule: Q04DX003 (ip), vehicle: Klucel (hydroxypropylcellulose) (HPC)).
Consider `CC(=O)Oc1ccc(N(CCO)CCO)cc1OC(C)=O`, for which the T/C is, setting by setting: (dose: 1.17 mg/kg/injection, schedule: Q01DX001 (ip), vehicle: water) 103 % of control; (dose: 2.34 mg/kg/injection, schedule: Q01DX001 (ip), vehicle: water) 97 % of control; (dose: 4.68 mg/kg/injection, schedule: Q01DX001 (ip), vehicle: water) 100 % of control.
With `COc1cc(Nc2ncnc(N)c2[N+](=O)[O-])cc(OC)c1OC`, the T/C (dose: 200.0 mg/kg/injection, schedule: Q04DX003 (ip), vehicle: saline with Tween-80) was 88 % of control.
Take `COCC(O)C(OC)C(OC)C(C=O)NC(=O)NCCCl` (configuration not stated): the T/C is, setting by setting: (dose: 100.0 mg/kg/injection, schedule: Q01DX001 (ip), vehicle: Klucel (hydroxypropylcellulose) (HPC)) 102 % of control; (dose: 200.0 mg/kg/injection, schedule: Q01DX001 (ip), vehicle: Klucel (hydroxypropylcellulose) (HPC)) 103 % of control; (dose: 400.0 mg/kg/injection, schedule: Q01DX001 (ip), vehicle: Klucel (hydroxypropylcellulose) (HPC)) 100 % of control.
As to `CC1(C)N=C(N)N=C(N)N1c1ccc(OCCOc2ccc(S(=O)(=O)F)cc2)c(Cl)c1`, the T/C (dose: 33.0 mg/kg/injection, schedule: Q04DX003 (ip), vehicle: Klucel (hydroxypropylcellulose) (HPC)) is 102 % of control; the T/C (dose: 33.0 mg/kg/injection, schedule: Q04DX003 (ip), vehicle: saline sonified) was 117 % of control; the T/C (dose: 50.0 mg/kg/injection, schedule: Q01DX009 (ip), vehicle: saline sonified) was 152 % of control; the T/C (dose: 50.0 mg/kg/injection, schedule: Q04DX003 (ip), vehicle: Klucel (hydroxypropylcellulose) (HPC)) is 112 % of control; the T/C (dose: 75.0 mg/kg/injection, schedule: Q04DX003 (ip), vehicle: Klucel (hydroxypropylcellulose) (HPC)) is 112 % of control; the T/C (dose: 75.0 mg/kg/injection, schedule: Q04DX003 (ip), vehicle: saline sonified) is 113 % of control. In addition, the T/C (dose: 100.0 mg/kg/injection, schedule: Q01DX009 (ip), vehicle: saline sonified) is 109 % of control; the T/C under setting [1] was 96 % of control; the T/C under setting [2] was 103 % of control; the T/C under setting [3] was 96 % of control.
As for `CC(C)=CC(=O)Nc1cccc(O)c1`, the T/C was 96 % of control (dose: 100.0 mg/kg/injection, schedule: Q01DX009 (ip), vehicle: saline with Tween-80); 91 % of control (dose: 200.0 mg/kg/injection, schedule: Q01DX009 (ip), vehicle: saline with Tween-80); 92 % of control (dose: 400.0 mg/kg/injection, schedule: Q01DX009 (ip), vehicle: saline with Tween-80).
As for `Cc1ccc2nc(CCl)[nH]c2c1`, the T/C by setting is: under setting [4], 119 % of control; under setting [5], 113 % of control; under setting [6], 107 % of control.
In the case of `CCOC(=O)CCN(Cc1ccccc1)C(COC)C(=O)OCC` (configuration not stated), the T/C under setting [5] is 97 % of control, the T/C under setting [6] was 90 % of control and the T/C under setting [7] is 101 % of control.
With `CCC(c1ccc2cc(OC)ccc2c1)C(C(=O)O)C(=O)O` (configuration not stated), the T/C was 96 % of control (dose: 50.0 mg/kg/injection, schedule: Q01DX009 (ip), vehicle: Klucel (hydroxypropylcellulose) (HPC)); 107 % of control under setting [8]; 96 % of control under setting [9].
Turning to `CCCC1C(=O)N2C(N(C)C)=Nc3ccc(C)cc3N2C1=O` (configuration not stated), the T/C was 101 % of control (dose: 50.0 mg/kg/injection, schedule: Q01DX009 (ip), vehicle: carboxymethylcellulose (CMC)); 110 % of control under setting [5]; 101 % of control (dose: 100.0 mg/kg/injection, schedule: Q01DX009 (ip), vehicle: carboxymethylcellulose (CMC)); 98 % of control under setting [6]; 101 % of control (dose: 200.0 mg/kg/injection, schedule: Q01DX009 (ip), vehicle: carboxymethylcellulose (CMC)); 93 % of control under setting [7]. Further, the T/C (dose: 400.0 mg/kg/injection, schedule: Q01DX009 (ip), vehicle: carboxymethylcellulose (CMC)) is 92 % of control.
As to `O=[N+]([O-])C1CC=CCC1c1ccc(C2CC=CCC2[N+](=O)[O-])cc1` (configuration not stated), the T/C by setting is: (dose: 100.0 mg/kg/injection, schedule: Q01DX001 (ip), vehicle: carboxymethylcellulose (CMC)) 96 % of control; (dose: 200.0 mg/kg/injection, schedule: Q01DX001 (ip), vehicle: carboxymethylcellulose (CMC)) 94 % of control; (dose: 400.0 mg/kg/injection, schedule: Q01DX001 (ip), vehicle: carboxymethylcellulose (CMC)) 92 % of control.
As for `CCCCCC(CN(C)C)C(O)CCc1ccc(Cl)c(Cl)c1` (configuration not stated), the T/C (dose: 25.0 mg/kg/injection, schedule: Q04DX002 (ip), vehicle: Klucel (hydroxypropylcellulose) (HPC)) is 93 % of control; the T/C (dose: 50.0 mg/kg/injection, schedule: Q04DX002 (ip), vehicle: Klucel (hydroxypropylcellulose) (HPC)) is 93 % of control; the T/C (dose: 100.0 mg/kg/injection, schedule: Q04DX002 (ip), vehicle: Klucel (hydroxypropylcellulose) (HPC)) was 104 % of control; the T/C (dose: 200.0 mg/kg/injection, schedule: Q04DX002 (ip), vehicle: Klucel (hydroxypropylcellulose) (HPC)) was 88 % of control; the T/C (dose: 400.0 mg/kg/injection, schedule: Q04DX002 (ip), vehicle: Klucel (hydroxypropylcellulose) (HPC)) is 117 % of control.
